Measurements as given in the supplement of paper PMC10307832.

Assays:
Experiment in all cases: relative viability (nuclei count vs DMSO), 5 days (fraction); higher = more cells survive
[1] = system: NCI-H441
How it was run: (§1)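 Lung cancer cell lines, seeded in 1536-well plates, were treated the following day by pin tool with a single drug or with five library-drug doses (not always all listed) in √10 steps on top of a fixed anchor-drug dose. Cells were fixed and nuclei stained in one step after 5 days, and nuclei were counted. Relative viability is the nuclei count for treated wells divided by that for vehicle wells, reported as medians of duplicate plates.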

[2] = system: EKVX
How it was run: as §1

[3] = system: NCI-H727
How it was run: as §1

[4] = system: NCI-H460
How it was run: as §1

[5] = system: HCC-366
How it was run: as §1

[6] = system: SW 900
How it was run: as §1

[7] = system: BEN
How it was run: as §1

[8] = system: LK-2
How it was run: as §1

[9] = system: NCI-H3122
How it was run: as §1

[10] = system: CAL-12T
How it was run: as §1

[11] = system: ABC-1
How it was run: as §1

[12] = system: NCI-H1650
How it was run: as §1

[13] = system: NCI-H2170
How it was run: as §1

[14] = system: LOU-NH91
How it was run: as §1

[15] = system: NCI-H1437
How it was run: as §1

[16] = system: NCI-H661
How it was run: as §1

[17] = system: NCI-H1666
How it was run: as §1

[18] = system: PC-14
How it was run: as §1

[19] = system: NCI-H2009
How it was run: as §1

[20] = system: HARA
How it was run: as §1

[21] = system: COR-L 105
How it was run: as §1

[22] = system: 201T
How it was run: as §1

Q: Which relative viability ([1]; first compound 0.0002 µM) does the source give for `CC(=O)O[C@@]12CO[C@@H]1C[C@H](O)[C@@]1(C)C(=O)[C@H](O)C3=C(C)[C@@H](OC(=O)[C@H](O)[C@@H](NC(=O)OC(C)(C)C)c4ccccc4)C[C@@](O)([C@@H](OC(=O)c4ccccc4)[C@H]21)C3(C)C` [Docetaxel] + Cc1nc(Nc2ncc(C(=O)Nc3c(C)cccc3Cl)s2)cc(N2CCN(CCO)CC2)n1 [Dasatinib] (partner 0.075 µM) here?
A: 0.621

Q: What about the relative viability ([1]; first compound 0.000632 µM) of the same molecule?
A: 0.499

Q: And the relative viability ([1]; first compound 0.002 µM)?
A: 0.235

Q: And the relative viability ([1]; first compound 0.006325 µM)?
A: 0.224

Q: And the relative viability ([1]; first compound 0.02 µM)?
A: 0.148

Q: And the relative viability ([2]; first compound 0.0002 µM)?
A: 0.472

Q: What about the relative viability ([2]; first compound 0.000632 µM) of the same molecule?
A: 0.45

Q: What about the relative viability ([2]; first compound 0.002 µM) of the same molecule?
A: 0.296

Q: And the relative viability ([2]; first compound 0.006325 µM)?
A: 0.264

Q: What about the relative viability ([2]; first compound 0.02 µM) of the same molecule?
A: 0.195

Q: What about the relative viability ([3]; first compound 0.0002 µM) of the same molecule?
A: 0.367

Q: What about the relative viability ([3]; first compound 0.000632 µM) of the same molecule?
A: 0.326

Q: What about the relative viability ([3]; first compound 0.002 µM) of the same molecule?
A: 0.272

Q: What about the relative viability ([3]; first compound 0.006325 µM) of the same molecule?
A: 0.395

Q: What about the relative viability ([3]; first compound 0.02 µM) of the same molecule?
A: 0.276

Q: What about the relative viability ([4]; first compound 0.0002 µM) of the same molecule?
A: 0.457

Q: What about the relative viability ([4]; first compound 0.000632 µM) of the same molecule?
A: 0.44

Q: And the relative viability ([4]; first compound 0.002 µM)?
A: 0.089

Q: What about the relative viability ([4]; first compound 0.006325 µM) of the same molecule?
A: 0.0266

Q: And the relative viability ([4]; first compound 0.02 µM)?
A: 0.0131

Q: And the relative viability ([5]; first compound 0.0002 µM)?
A: 0.569

Q: And the relative viability ([5]; first compound 0.000632 µM)?
A: 0.255

Q: And the relative viability ([5]; first compound 0.002 µM)?
A: 0.119

Q: What about the relative viability ([5]; first compound 0.006325 µM) of the same molecule?
A: 0.0384

Q: And the relative viability ([5]; first compound 0.02 µM)?
A: 0.0228

Q: And the relative viability ([6]; first compound 0.0002 µM)?
A: 0.612

Q: And the relative viability ([6]; first compound 0.000632 µM)?
A: 0.218

Q: And the relative viability ([6]; first compound 0.002 µM)?
A: 0.171

Q: And the relative viability ([6]; first compound 0.006325 µM)?
A: 0.221

Q: What about the relative viability ([6]; first compound 0.02 µM) of the same molecule?
A: 0.127

Q: What about the relative viability ([7]; first compound 0.0002 µM) of the same molecule?
A: 0.281

Q: And the relative viability ([7]; first compound 0.000632 µM)?
A: 0.355

Q: And the relative viability ([7]; first compound 0.002 µM)?
A: 0.328

Q: What about the relative viability ([7]; first compound 0.006325 µM) of the same molecule?
A: 0.183

Q: And the relative viability ([7]; first compound 0.02 µM)?
A: 0.154

Q: What about the relative viability ([8]; first compound 0.0002 µM) of the same molecule?
A: 0.212

Q: What about the relative viability ([8]; first compound 0.000632 µM) of the same molecule?
A: 0.268

Q: What about the relative viability ([8]; first compound 0.002 µM) of the same molecule?
A: 0.181

Q: And the relative viability ([8]; first compound 0.006325 µM)?
A: 0.21

Q: And the relative viability ([8]; first compound 0.02 µM)?
A: 0.113

Q: What about the relative viability ([9]; first compound 0.0002 µM) of the same molecule?
A: 0.822

Q: And the relative viability ([9]; first compound 0.000632 µM)?
A: 0.694

Q: And the relative viability ([9]; first compound 0.002 µM)?
A: 0.508

Q: What about the relative viability ([9]; first compound 0.006325 µM) of the same molecule?
A: 0.102

Q: And the relative viability ([9]; first compound 0.02 µM)?
A: 0.078

Q: And the relative viability ([10]; first compound 0.0002 µM)?
A: 0.412

Q: What about the relative viability ([10]; first compound 0.000632 µM) of the same molecule?
A: 0.192

Q: And the relative viability ([10]; first compound 0.002 µM)?
A: 0.137

Q: What about the relative viability ([10]; first compound 0.006325 µM) of the same molecule?
A: 0.0909

Q: And the relative viability ([10]; first compound 0.02 µM)?
A: 0.0651

Q: What about the relative viability ([11]; first compound 0.0002 µM) of the same molecule?
A: 0.533

Q: What about the relative viability ([11]; first compound 0.000632 µM) of the same molecule?
A: 0.434

Q: And the relative viability ([11]; first compound 0.002 µM)?
A: 0.388

Q: And the relative viability ([11]; first compound 0.006325 µM)?
A: 0.36

Q: And the relative viability ([11]; first compound 0.02 µM)?
A: 0.252

Q: What about the relative viability ([12]; first compound 0.0002 µM) of the same molecule?
A: 0.263

Q: What about the relative viability ([12]; first compound 0.000632 µM) of the same molecule?
A: 0.245

Q: And the relative viability ([12]; first compound 0.02 µM)?
A: 0.104

Q: And the relative viability ([13]; first compound 0.0002 µM)?
A: 0.6

Q: What about the relative viability ([13]; first compound 0.000632 µM) of the same molecule?
A: 0.574

Q: And the relative viability ([13]; first compound 0.002 µM)?
A: 0.428

Q: What about the relative viability ([13]; first compound 0.006325 µM) of the same molecule?
A: 0.141

Q: What about the relative viability ([13]; first compound 0.02 µM) of the same molecule?
A: 0.14

Q: And the relative viability ([14]; first compound 0.0002 µM)?
A: 0.553

Q: What about the relative viability ([14]; first compound 0.000632 µM) of the same molecule?
A: 0.533

Q: What about the relative viability ([14]; first compound 0.002 µM) of the same molecule?
A: 0.345

Q: And the relative viability ([14]; first compound 0.006325 µM)?
A: 0.304

Q: And the relative viability ([14]; first compound 0.02 µM)?
A: 0.247

Q: And the relative viability ([15]; first compound 0.0002 µM)?
A: 0.339

Q: And the relative viability ([15]; first compound 0.000632 µM)?
A: 0.259

Q: And the relative viability ([15]; first compound 0.002 µM)?
A: 0.268

Q: What about the relative viability ([15]; first compound 0.006325 µM) of the same molecule?
A: 0.174

Q: What about the relative viability ([15]; first compound 0.02 µM) of the same molecule?
A: 0.122

Q: And the relative viability ([16]; first compound 0.0002 µM)?
A: 0.836

Q: And the relative viability ([16]; first compound 0.000632 µM)?
A: 0.792

Q: And the relative viability ([16]; first compound 0.002 µM)?
A: 0.528

Q: And the relative viability ([16]; first compound 0.006325 µM)?
A: 0.395

Q: What about the relative viability ([16]; first compound 0.02 µM) of the same molecule?
A: 0.284

Q: What about the relative viability ([17]; first compound 0.0002 µM) of the same molecule?
A: 0.684

Q: What about the relative viability ([17]; first compound 0.000632 µM) of the same molecule?
A: 0.594

Q: And the relative viability ([17]; first compound 0.002 µM)?
A: 0.465

Q: And the relative viability ([17]; first compound 0.006325 µM)?
A: 0.414

Q: What about the relative viability ([17]; first compound 0.02 µM) of the same molecule?
A: 0.284

Q: And the relative viability ([18]; first compound 0.0002 µM)?
A: 0.286

Q: What about the relative viability ([18]; first compound 0.000632 µM) of the same molecule?
A: 0.188

Q: What about the relative viability ([18]; first compound 0.002 µM) of the same molecule?
A: 0.0514

Q: What about the relative viability ([18]; first compound 0.006325 µM) of the same molecule?
A: 0.0304

Q: What about the relative viability ([18]; first compound 0.02 µM) of the same molecule?
A: 0.0231

Q: What about the relative viability ([19]; first compound 0.0002 µM) of the same molecule?
A: 0.261

Q: What about the relative viability ([19]; first compound 0.000632 µM) of the same molecule?
A: 0.299

Q: What about the relative viability ([19]; first compound 0.002 µM) of the same molecule?
A: 0.273

Q: What about the relative viability ([19]; first compound 0.006325 µM) of the same molecule?
A: 0.204

Q: What about the relative viability ([19]; first compound 0.02 µM) of the same molecule?
A: 0.121

Q: And the relative viability ([20]; first compound 0.0002 µM)?
A: 0.261

Q: And the relative viability ([20]; first compound 0.000632 µM)?
A: 0.173

Q: And the relative viability ([20]; first compound 0.002 µM)?
A: 0.134

Q: And the relative viability ([20]; first compound 0.006325 µM)?
A: 0.0839

Q: What about the relative viability ([20]; first compound 0.02 µM) of the same molecule?
A: 0.0451

Q: And the relative viability ([21]; first compound 0.0002 µM)?
A: 0.322

Q: What about the relative viability ([21]; first compound 0.000632 µM) of the same molecule?
A: 0.288

Q: And the relative viability ([21]; first compound 0.002 µM)?
A: 0.224

Q: And the relative viability ([21]; first compound 0.006325 µM)?
A: 0.249

Q: And the relative viability ([21]; first compound 0.02 µM)?
A: 0.202

Q: What about the relative viability ([22]; first compound 0.0002 µM) of the same molecule?
A: 0.562

Q: What about the relative viability ([22]; first compound 0.000632 µM) of the same molecule?
A: 0.548

Q: And the relative viability ([22]; first compound 0.002 µM)?
A: 0.52

Q: What about the relative viability ([22]; first compound 0.006325 µM) of the same molecule?
A: 0.46

Q: What about the relative viability ([22]; first compound 0.02 µM) of the same molecule?
A: 0.282
